What was measured:
Type in all cases: in vivo
barley = experiment: Compatibility with crop plants; conditions: pre- or post-emergence treatment in the greenhouse; visual scoring four to five weeks after application; even at relatively high application rates
Excerpt: In further tests in the greenhouse, seeds of a relatively large number of crop plants and weeds were placed in sandy loam and covered with soil. Some of the pots were immediately treated as described in section 1, the others were placed in the greenhouse until the plants had developed two to three true leaves and were then sprayed with 2-iodo-N-[(4-methoxy-6-methyl-1,3,5-triazin-2-yl)carbamoyl]benzenesulfonamide and also, for example, the compounds Nos. I-1, I-2, I-3, I-4, I-12, I-18 and 1-19 from Table 1, as described in section 2.

Matricaria inodora [1] = experiment: Post-emergence action against weeds; conditions: post-emergence method, application rate of 0.1 kg or less of active substance per hectare, visual scoring after about 3 to 4 weeks
Experimental: (§1) Seeds or rhizome pieces of monocotyledonous and dicotyledonous weeds were placed in sandy loam in plastic pots, covered with soil and cultivated in a greenhouse under good growth conditions. Three weeks after sowing, the test plants were treated at the three-leaf stage.

Viola tricolor [2] = experiment: Post-emergence action against weeds; conditions: post-emergence method, application rate of 0.1 kg or less of active substance per hectare, visual scoring after about 3 to 4 weeks
Experimental: as §1

Amaranthus retroflexus = experiment: Post-emergence action against weeds; conditions: post-emergence method, application rate of 0.1 kg or less of active substance per hectare, visual scoring after about 3 to 4 weeks
Experimental: as §1

Abuthilon theophrasti = experiment: Post-emergence action against weeds; conditions: post-emergence method, application rate of 0.1 kg or less of active substance per hectare, visual scoring after about 3 to 4 weeks
Experimental: as §1

Veronica persica = experiment: Post-emergence action against weeds; conditions: post-emergence method, application rate of 0.1 kg or less of active substance per hectare, visual scoring after about 3 to 4 weeks
Experimental: as §1

Lolium multiflorum [3] = experiment: Post-emergence action against weeds; conditions: post-emergence method, application rate of 0.1 kg or less of active substance per hectare, visual scoring after about 3 to 4 weeks
Experimental: as §1

Stellaria media [4] = experiment: Post-emergence action against weeds; conditions: post-emergence method, application rate of 0.1 kg or less of active substance per hectare, visual scoring after about 3 to 4 weeks
Experimental: as §1

Ipomoea purpurea = experiment: Post-emergence action against weeds; conditions: post-emergence method, application rate of 0.1 kg or less of active substance per hectare, visual scoring after about 3 to 4 weeks
Experimental: as §1

Matricaria inodora [5] = experiment: Pre-emergence herbicidal activity; conditions: pre-emergence method, application rate of 0.1 kg or less of active substance per hectare, visual scoring after 3 to 4 weeks
Excerpt: (§2) Seeds or rhizome pieces of mono- and dicotyledonous weeds were placed in sandy loam in cardboard pots and covered with soil. The compounds according to the invention, formulated in the form of wettable powders or emulsion concentrates, were then applied to the surface of the covering soil in the form of aqueous suspensions or emulsions at an application rate of 100 to 8001 of water/ha (converted), at various dosages.
(§3) After the treatment, the pots were placed in a greenhouse and kept under good growth conditions for the weeds. Visual scoring of the damage to the plants or the emergence damage was carried out after the emergence of the test plants after a test period of 3 to 4 weeks, by comparison with untreated controls. As shown by the results, the compounds according to the invention have good herbicidal pre-emergence activity against a broad spectrum of weed grasses and broad-leaved weeds.

Viola tricolor [6] = experiment: Pre-emergence herbicidal activity; conditions: pre-emergence method, application rate of 0.1 kg or less of active substance per hectare, visual scoring after 3 to 4 weeks
Excerpt: as §2, §3

Papaver rhoeas = experiment: Pre-emergence herbicidal activity; conditions: pre-emergence method, application rate of 0.1 kg or less of active substance per hectare, visual scoring after 3 to 4 weeks
Excerpt: as §2, §3

Lolium multiflorum [7] = experiment: Pre-emergence herbicidal activity; conditions: pre-emergence method, application rate of 0.1 kg or less of active substance per hectare, visual scoring after 3 to 4 weeks
Excerpt: as §2, §3

Stellaria media [8] = experiment: Pre-emergence herbicidal activity; conditions: pre-emergence method, application rate of 0.1 kg or less of active substance per hectare, visual scoring after 3 to 4 weeks
Excerpt: as §2, §3

Row | Compound | damage to barley (barley) | herbicidal activity (Matricaria inodora [1]) | herbicidal activity (Viola tricolor [2]) | herbicidal activity (Amaranthus retroflexus) | herbicidal activity (Abuthilon theophrasti) | herbicidal activity (Veronica persica) | herbicidal activity (Lolium multiflorum [3]) | herbicidal activity (Stellaria media [4]) | herbicidal activity (Ipomoea purpurea) | herbicidal activity (Matricaria inodora [5]) | herbicidal activity (Viola tricolor [6]) | herbicidal activity (Papaver rhoeas) | herbicidal activity (Lolium multiflorum [7]) | herbicidal activity (Stellaria media [8])
1 | CC[N+](CC)(CC)CC.COc1nc(C)nc(NC(=O)[N-]S(=O)(=O)c2ccccc2I)n1 [Compound I-12] | did not damage barley at all or left only marginal traces of damage | very good herbicidal activity | very good herbicidal activity | very good herbicidal activity | very good herbicidal activity | very good herbicidal activity | very good herbicidal activity | very good herbicidal activity | very good herbicidal activity | very good herbicidal activity | very good herbicidal activity | very good herbicidal activity | very good herbicidal activity | very good herbicidal activity
2 | COc1nc(C)nc(NC(=O)NS(=O)(=O)c2ccccc2I)n1 [2-iodo-N-[(4-methoxy-6-methyl-1,3,5-triazin-2-yl)carbamoyl]benzenesulfonamide] | did not damage barley at all or left only marginal traces of damage | very good herbicidal activity | very good herbicidal activity | very good herbicidal activity | very good herbicidal activity | very good herbicidal activity | very good herbicidal activity | very good herbicidal activity | very good herbicidal activity | very good herbicidal activity | very good herbicidal activity | very good herbicidal activity | very good herbicidal activity | very good herbicidal activity
3 | CCCC[N+](CCCC)(CCCC)CCCC.COc1nc(C)nc(NC(=O)[N-]S(=O)(=O)c2ccccc2I)n1 [Compound I-18] | did not damage barley at all or left only marginal traces of damage | very good herbicidal activity | very good herbicidal activity | very good herbicidal activity | very good herbicidal activity | very good herbicidal activity | very good herbicidal activity | very good herbicidal activity | very good herbicidal activity | very good herbicidal activity | very good herbicidal activity | very good herbicidal activity | very good herbicidal activity | very good herbicidal activity
